Measurements reported in ChEMBL document CHEMBL1201862, “PubChem BioAssay data set” (2004).
Values belong to the compound of their own block, whether it stands above or below them. The source made the active and inactive calls.

Assays:
[1] = viability loss in HepG2 hepatoma cells – cell-based, ATP luminescence, cherry-pick, activator set 2, cytotoxicity control, dose response (AID 1053143); assay type: functional
[2] = system: HEK293; assay: cells; assay type: functional, cell-based; conditions: Homo sapiens
[3] = target: T1, DNA repair and recombination protein RAD54-like (Homo sapiens, UniProt Q92698); assay: RAD54 Holliday junction migration blockers – biochemical, fluorescence, cherry-picked samples, dose series, confirmation (AID 651657); assay type: functional
T1 sequence (Q92698 whole entry): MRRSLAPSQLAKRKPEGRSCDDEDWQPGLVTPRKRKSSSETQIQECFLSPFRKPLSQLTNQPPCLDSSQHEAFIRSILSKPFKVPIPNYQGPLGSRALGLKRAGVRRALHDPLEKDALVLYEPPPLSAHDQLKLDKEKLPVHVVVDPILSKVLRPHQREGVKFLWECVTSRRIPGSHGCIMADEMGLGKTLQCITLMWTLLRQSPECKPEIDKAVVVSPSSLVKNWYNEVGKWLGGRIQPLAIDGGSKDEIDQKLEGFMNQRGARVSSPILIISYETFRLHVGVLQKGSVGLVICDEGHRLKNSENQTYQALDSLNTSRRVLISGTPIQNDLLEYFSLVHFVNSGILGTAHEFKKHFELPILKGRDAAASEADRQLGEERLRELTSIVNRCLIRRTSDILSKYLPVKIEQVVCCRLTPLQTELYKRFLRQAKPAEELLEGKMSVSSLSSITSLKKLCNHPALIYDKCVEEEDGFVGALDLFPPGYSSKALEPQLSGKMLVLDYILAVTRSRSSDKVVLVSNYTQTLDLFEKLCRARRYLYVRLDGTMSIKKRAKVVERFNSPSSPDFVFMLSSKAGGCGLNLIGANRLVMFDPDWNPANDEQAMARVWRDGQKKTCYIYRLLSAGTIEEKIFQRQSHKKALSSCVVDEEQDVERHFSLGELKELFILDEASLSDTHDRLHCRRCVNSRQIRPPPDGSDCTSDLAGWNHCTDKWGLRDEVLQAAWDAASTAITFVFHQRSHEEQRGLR

[4] = target: Nuclear receptor subfamily 0 group B member 1 (Homo sapiens, UniProt P51843); assay: Luminescence-based cell-based high throughput dose response assay for inhibitors of the orphan nuclear receptor subfamily 0, group B, member 1 (DAX1; NR0B1). [Related pubchem assays (depositor defined):AID504766, AID504790]; assay type: functional
[5] = cytotoxicity toward MDA-MB-231 breast cancer cells – cell-based, CellTiter-Glo luminescence, cherry-pick, cytotoxicity control for RAD54 inhibitor project, dose response (AID 651692); assay type: functional
[6] = target: T2, Probable nicotinate-nucleotide adenylyltransferase (Staphylococcus aureus (strain N315), UniProt P65502); assay type: functional, Staphylococcus aureus subsp. aureus N315;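 on IC50 Mean: confirmatory dose-response retesting of NadD inhibitor hits first found in an ultra-high-throughput screen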
[7] = target: T2, Probable nicotinate-nucleotide adenylyltransferase; assay type: functional, Staphylococcus aureus subsp. aureus N315; conditions: read-out: IC50_Mean
[8] = target: T3, Heat shock factor protein 1 (Mus musculus, UniProt P38532); assay: enhancement of HSF1-driven luciferase signal – cell-based, NIH3T3, luminescence, dose retest, confirmation (AID 435004); assay type: functional;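 further: stress induced by proteasome inhibitor MG132 added 30 min after compound; luciferase reporter driven by HSF1 response element in NIH3T3 cells; actives raise luminescence as potentiators of the MG132 stress response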
T3 sequence (P38532 whole entry): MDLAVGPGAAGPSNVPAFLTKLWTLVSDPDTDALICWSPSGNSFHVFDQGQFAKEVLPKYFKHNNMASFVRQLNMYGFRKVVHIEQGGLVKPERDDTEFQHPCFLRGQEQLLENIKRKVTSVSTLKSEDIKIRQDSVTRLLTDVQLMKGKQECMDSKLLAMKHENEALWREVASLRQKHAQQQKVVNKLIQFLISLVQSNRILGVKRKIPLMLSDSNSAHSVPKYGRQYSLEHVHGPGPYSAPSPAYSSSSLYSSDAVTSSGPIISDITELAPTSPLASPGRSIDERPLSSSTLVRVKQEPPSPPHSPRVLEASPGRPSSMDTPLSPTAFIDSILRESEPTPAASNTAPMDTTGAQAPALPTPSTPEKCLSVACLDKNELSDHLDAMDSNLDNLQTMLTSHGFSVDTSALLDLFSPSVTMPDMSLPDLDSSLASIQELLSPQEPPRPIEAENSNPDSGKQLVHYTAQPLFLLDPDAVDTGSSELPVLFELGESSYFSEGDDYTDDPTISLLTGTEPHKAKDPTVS

[9] = target: Steroidogenic factor 1 (Homo sapiens, UniProt Q13285); assay: Counterscreen for inverse agonists of the liver receptor homolog-1 (LRH-1; NR5A2): Luminescence-based cell-based high throughput dose response assay to identify inverse agonists of the Steroidogenic Factor 1 Nuclear Receptor (SF1; NR5A1).; assay type: functional
[10] = nonselective StAR promoter luciferase inhibitors – cell-based, luminescence, luciferase reporter, counter-screen for LRH-1 inverse agonist project, dose response (AID 651969); assay type: functional
[11] = target: Nuclear receptor subfamily 5 group A member 2 (Homo sapiens, UniProt O00482); assay type: functional, cell-based;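 further: HEK293T cells transfected with LRH-1 and a StAR promoter luciferase reporter; potency for inhibitors that lower LRH-1 driven reporter light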
[12] = target: T4, Low molecular weight phosphotyrosine protein phosphatase (Homo sapiens, UniProt P24666); assay type: functional; conditions: read-out: IC50_Mean
T4 sequence (P24666 whole entry): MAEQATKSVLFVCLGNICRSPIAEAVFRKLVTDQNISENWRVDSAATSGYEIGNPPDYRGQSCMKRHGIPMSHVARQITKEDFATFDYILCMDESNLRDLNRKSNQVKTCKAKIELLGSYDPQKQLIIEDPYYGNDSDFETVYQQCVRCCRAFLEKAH

[13] = target: T5, Carboxy-terminal domain RNA polymerase II polypeptide A small phosphatase 1 (Homo sapiens, UniProt Q9GZU7); assay: CTDSP1 inhibitors, concentration-response, biochemical, absorbance readout, ultra-high-throughput screen actives (AID 540297); assay type: functional
T5 sequence (Q9GZU7 whole entry): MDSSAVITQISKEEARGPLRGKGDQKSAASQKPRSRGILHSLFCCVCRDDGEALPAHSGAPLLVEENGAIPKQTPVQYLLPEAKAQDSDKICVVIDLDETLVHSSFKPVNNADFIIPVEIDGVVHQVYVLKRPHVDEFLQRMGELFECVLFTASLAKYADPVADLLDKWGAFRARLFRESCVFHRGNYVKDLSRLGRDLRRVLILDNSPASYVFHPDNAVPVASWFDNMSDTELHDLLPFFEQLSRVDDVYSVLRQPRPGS

[14] = target: Tyrosine-protein phosphatase non-receptor type 5 (Homo sapiens, UniProt P54829); assay: PTPN5 enzyme inhibition – biochemical, fluorescence intensity, uHTS hits, confirmation (AID 602372); assay type: functional; conditions: read-out: IC50_Mean
[15] = target: Tyrosine-protein phosphatase non-receptor type 11 (Homo sapiens, UniProt Q06124); assay: PTPN11 enzyme inhibitors – biochemical, selectivity assay for STEP inhibitor project, dose response (AID 602367); assay type: functional; conditions: read-out: IC50_Mean
[16] = target: Dual specificity protein phosphatase 3 (Homo sapiens, UniProt P51452); assay: VHR phosphatase inhibition, dose response, selectivity assay for STEP inhibitor project, biochemical (AID 602374); assay type: functional; conditions: read-out: IC50_Mean
[17] = target: T4, Low molecular weight phosphotyrosine protein phosphatase; assay type: functional; conditions: read-out: IC50_Mean; remark: listed apart in the source
[18] = target: T6, Tyrosine-protein phosphatase non-receptor type 22 (Homo sapiens, UniProt Q9Y2R2); assay: PTPN22 enzyme inhibitors – biochemical, fluorescence, LYP catalytic domain, selectivity assay for LMPTP inhibitor project, dose response (AID 652006); assay type: functional; conditions: read-out: IC50_Mean
T6 sequence (Q9Y2R2 whole entry): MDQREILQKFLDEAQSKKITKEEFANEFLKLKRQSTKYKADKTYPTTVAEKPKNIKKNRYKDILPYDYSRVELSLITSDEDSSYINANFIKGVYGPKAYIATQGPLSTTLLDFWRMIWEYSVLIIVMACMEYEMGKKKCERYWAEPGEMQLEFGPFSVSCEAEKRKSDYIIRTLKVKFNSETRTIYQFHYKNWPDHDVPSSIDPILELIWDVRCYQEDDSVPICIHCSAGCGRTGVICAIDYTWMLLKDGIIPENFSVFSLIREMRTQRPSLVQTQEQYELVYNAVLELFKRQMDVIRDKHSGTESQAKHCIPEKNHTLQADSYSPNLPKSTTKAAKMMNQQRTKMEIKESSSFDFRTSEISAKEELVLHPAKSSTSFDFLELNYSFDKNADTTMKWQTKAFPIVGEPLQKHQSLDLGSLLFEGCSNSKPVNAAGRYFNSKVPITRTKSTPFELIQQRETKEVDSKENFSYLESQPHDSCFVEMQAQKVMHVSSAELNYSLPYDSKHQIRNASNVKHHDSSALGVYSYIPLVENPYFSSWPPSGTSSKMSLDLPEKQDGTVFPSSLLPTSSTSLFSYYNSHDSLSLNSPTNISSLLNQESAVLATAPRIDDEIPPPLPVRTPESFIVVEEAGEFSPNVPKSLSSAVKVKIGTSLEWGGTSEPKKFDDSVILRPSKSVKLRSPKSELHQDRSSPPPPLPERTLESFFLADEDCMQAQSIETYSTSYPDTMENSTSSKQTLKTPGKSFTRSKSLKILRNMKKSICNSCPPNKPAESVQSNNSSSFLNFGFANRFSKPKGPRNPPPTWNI

[19] = target: Hepatocyte nuclear factor 4-alpha (Homo sapiens, UniProt P41235); assay type: functional, cell-based;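 further: biochemical luminescence-based dose-response counterscreen measuring inhibition of HNF4 dimerization, run alongside a screen for blockers of ABHD5–perilipin-5 interaction; split luciferase complementation of HNF4 fusion proteins in cell lysate measuring dimerization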
Hepatocyte nuclear factor 4-alpha, sequence (P41235 whole entry, the tested form may be a part): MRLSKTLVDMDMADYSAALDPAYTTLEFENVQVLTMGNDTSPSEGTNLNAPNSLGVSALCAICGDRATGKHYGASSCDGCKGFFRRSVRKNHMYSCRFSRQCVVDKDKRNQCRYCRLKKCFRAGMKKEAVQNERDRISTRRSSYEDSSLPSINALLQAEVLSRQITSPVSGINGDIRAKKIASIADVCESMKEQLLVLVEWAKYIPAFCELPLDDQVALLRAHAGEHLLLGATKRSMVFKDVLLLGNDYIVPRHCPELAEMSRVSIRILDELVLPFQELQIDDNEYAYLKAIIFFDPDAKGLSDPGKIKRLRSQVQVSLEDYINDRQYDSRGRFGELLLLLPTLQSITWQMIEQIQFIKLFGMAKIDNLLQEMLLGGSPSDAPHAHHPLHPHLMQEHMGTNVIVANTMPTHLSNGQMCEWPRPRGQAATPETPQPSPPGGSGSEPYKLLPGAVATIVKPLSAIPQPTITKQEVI

Steroidogenic factor 1, sequence (Q13285 whole entry): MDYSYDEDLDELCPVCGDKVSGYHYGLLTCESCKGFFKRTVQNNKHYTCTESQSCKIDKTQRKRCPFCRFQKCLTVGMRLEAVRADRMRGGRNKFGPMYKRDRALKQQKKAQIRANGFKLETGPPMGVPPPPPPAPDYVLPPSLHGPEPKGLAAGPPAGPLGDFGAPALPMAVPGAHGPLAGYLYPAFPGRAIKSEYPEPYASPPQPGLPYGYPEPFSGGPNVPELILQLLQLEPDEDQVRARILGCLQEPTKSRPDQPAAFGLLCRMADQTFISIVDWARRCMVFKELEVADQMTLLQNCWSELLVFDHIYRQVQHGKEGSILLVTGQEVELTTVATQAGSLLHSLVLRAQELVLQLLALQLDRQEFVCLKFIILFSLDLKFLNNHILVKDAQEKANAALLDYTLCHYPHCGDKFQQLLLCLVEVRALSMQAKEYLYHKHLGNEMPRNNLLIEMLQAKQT
Tyrosine-protein phosphatase non-receptor type 5, sequence (P54829 whole entry): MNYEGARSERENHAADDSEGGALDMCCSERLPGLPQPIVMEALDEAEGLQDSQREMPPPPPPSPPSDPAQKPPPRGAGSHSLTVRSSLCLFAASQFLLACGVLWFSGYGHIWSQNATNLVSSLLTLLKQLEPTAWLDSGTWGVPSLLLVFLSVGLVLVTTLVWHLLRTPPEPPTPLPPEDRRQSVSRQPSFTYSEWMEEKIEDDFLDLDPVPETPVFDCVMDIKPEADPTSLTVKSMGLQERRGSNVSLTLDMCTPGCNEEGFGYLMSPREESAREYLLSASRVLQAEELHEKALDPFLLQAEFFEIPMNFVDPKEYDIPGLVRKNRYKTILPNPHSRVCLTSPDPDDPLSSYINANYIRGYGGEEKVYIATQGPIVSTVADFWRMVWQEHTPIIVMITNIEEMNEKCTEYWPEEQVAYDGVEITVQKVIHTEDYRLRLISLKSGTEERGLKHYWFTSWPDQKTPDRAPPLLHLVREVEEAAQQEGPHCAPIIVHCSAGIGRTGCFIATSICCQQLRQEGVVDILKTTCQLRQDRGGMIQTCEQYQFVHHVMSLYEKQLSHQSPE
Nuclear receptor subfamily 0 group B member 1, sequence (P51843 whole entry): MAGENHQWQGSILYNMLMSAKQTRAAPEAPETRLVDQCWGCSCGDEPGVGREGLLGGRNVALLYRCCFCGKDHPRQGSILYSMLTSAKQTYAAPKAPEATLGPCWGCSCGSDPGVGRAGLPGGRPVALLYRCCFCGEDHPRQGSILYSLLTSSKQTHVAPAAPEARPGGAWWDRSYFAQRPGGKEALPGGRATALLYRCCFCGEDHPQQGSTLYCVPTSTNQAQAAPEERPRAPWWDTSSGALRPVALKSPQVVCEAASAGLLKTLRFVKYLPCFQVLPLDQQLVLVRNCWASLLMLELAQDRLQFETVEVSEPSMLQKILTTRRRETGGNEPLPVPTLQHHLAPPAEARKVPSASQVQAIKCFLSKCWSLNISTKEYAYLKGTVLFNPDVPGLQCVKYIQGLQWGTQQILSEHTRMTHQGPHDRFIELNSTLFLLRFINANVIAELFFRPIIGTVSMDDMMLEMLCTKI
Nuclear receptor subfamily 5 group A member 2, sequence (O00482 whole entry): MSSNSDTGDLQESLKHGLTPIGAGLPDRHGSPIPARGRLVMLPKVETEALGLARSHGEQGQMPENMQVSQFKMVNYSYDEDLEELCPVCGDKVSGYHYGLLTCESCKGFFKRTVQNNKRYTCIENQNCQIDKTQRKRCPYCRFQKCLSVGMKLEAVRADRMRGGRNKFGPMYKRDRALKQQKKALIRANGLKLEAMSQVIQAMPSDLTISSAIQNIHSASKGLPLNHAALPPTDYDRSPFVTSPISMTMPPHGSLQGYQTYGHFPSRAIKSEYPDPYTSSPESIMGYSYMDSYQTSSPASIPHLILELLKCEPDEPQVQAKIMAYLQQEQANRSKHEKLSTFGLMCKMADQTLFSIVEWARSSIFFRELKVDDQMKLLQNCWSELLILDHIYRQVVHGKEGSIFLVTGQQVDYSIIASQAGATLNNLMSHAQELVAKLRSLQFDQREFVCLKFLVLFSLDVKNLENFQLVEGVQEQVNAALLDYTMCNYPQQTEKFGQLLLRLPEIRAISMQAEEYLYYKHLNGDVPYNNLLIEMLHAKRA
Dual specificity protein phosphatase 3, sequence (P51452 whole entry): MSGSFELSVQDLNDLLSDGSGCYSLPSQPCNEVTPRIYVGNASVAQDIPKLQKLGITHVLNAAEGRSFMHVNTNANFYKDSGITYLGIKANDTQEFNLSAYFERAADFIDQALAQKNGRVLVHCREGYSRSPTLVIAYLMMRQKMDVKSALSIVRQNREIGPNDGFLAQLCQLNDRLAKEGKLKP

Structure (SMILES): CCN1C(=O)CCN(C2CCCC2)c2nc(Nc3ccc(C(=O)NC4CCN(C)CC4)cc3OC)ncc21
- AC50 [1]: 13 µM (active)
- IC50 [2]: > 67.5 µM (inactive)
- AC50 [3]: 39.3 µM (active)
- IC50 [4]: > 67.5 µM (inactive)
- AC50 [5]: 36.4 µM (active)

- IC50 [6]: 44.3 µM (active)
- IC50 [7]: 80 µM (inactive)
- EC50 [8]: > 260 µM (inactive)
Structure (SMILES): O=C(CNc1cccc2ccccc12)N/N=C/c1ccc([N+](=O)[O-])cc1

Structure (SMILES): Cc1ccc(NC(=O)COC(=O)c2cc(=O)c3ccccc3o2)c(Br)c1
- IC50 [9]: 24.3 µM (inactive)
- IC50 [10]: 35.9 µM (inactive)
- IC50 [11]: 3.98 µM (active)

- IC50 [12]: 11.2 µM (active)
- IC50 [13]: 3.55 µM (active)
- IC50 [14]: 9.39 µM (active)
- IC50 [15]: 1.37 µM (active)
- IC50 [16]: 2.45 µM (active)
- IC50 [17]: 17.2 µM (active)
- IC50 [18]: 24.9 µM (inactive)
Structure (SMILES): O=C(N/N=C/c1ccc(OC(=O)c2cccs2)cc1)c1cccc(F)c1

- IC50 [19]: 1.81 µM (active)
Structure (SMILES): CC(C)(C)NC(=O)C(c1ccc(C(F)(F)F)cc1)n1c(=O)c(-c2ccco2)nc2ccccc21 (centres undefined)
